This note sets out measurements from patent publication US7939541B2, “Intermediates and a process employing the intermediates for the preparation of (3-trifluoromethylsulfonyl)-N-[4-methyl-3-(4-pyridin-3yl-pyrimidin-2ylamino)-phenyl]-benzamide” (Natco Pharma Limited, priority 2004, dated 2011).

For test [1], the system named is K562 luciferase expressing cells. The test can be described thus: Leukemic survival study. It is filed as in vivo, nude mice. An excerpt: K562 luciferase expressing cells were implanted intraperitoneally into nude mice; the mice were scanned using the xenogeny IVIS image station after ip injections of luciferin does determine implantations. Drug treatment was started as in previous studies day 15 after implantation. The animals were given treatment till day 42, after which drug treatment was stopped and survival of the animals determined as per the animal care regulations. […] Drug treatment was withdrawn on day 42 post implantation and survival of animals determined.

The subject of test [2] is K562 luc human leukemia cells. The test can be described thus: Luciferase expression in nude mice implanted with K562 luc cells, low dose oral administration. Format: in vivo. An excerpt:
Five mice were used per group and divided into 24 groups+2 control. All groups were implanted with K562 normal/luc cells. Of the 24 groups, 12 were used for luciferase studies whereas the other 12 were used for blood smear count studies.

The subject of test [3] is 5310 glioma cells. Nature of the test: In vitro angiogenic assay, 5310 conditioned media on human dermal endothelial cells. The settings on record: 5310 cells. Format: cell-based. The method, then:
The in vitro angiogenesis of 4910, 5310 and U87 glioma cells and MDAMB231 and ZR71 breast cancer cells in the presence of specified concentrations of compounds were determined as follows, cells (2×10^4/well) were seeded in 8-well chamber slides and were treated with various concentrations of test compounds. After a 24 h incubation period, the conditioned media was removed and added to a 4×10^4 human dermal endothelial cell (monolayer in 8-well chamber slides) and the human dermal endothelial cells were allowed to grow for 72 h. Cells were then fixed in 3.7% formaldehyde and stained with H&E and photographed.

Test [4] deals with Baf3 murine leukemia cells E255K. The test can be described thus: Blast cell count in nude mice implanted with Baf3 E255K cells. It is filed as in vivo. The following applies: Baf3E255K (printed E225K); Imatinib 10 mg/kg, AN019 20 mg/kg, AN024 20 mg/kg, oral gavage or ip from day 15; day 42. An excerpt:
Blood smears were obtained via the tail vein or via the femoral vein every 6th day and blast cells counted and graphically represented.
Abdominal swelling and decrease in activity was monitored daily, blood smear taken via the tail vein or the femoral vein every 6th day and H&E stained as per standard protocols. 42 days after implantation, mice were sacrificed and spleens harvested.
Blood from tail vein or the femoral vein was taken every 6th day from Baf3 cell implanted mice until day 42.
Nude mice were intraperitoneally implanted with Baf3 mutant cells (wt, T315I, M351T or E255K). […] Blood was drawn from the femoral vein or tail vein every 6th day and blast cell count determined and graphically represented.

On to `Cc1ccc(NC(=O)c2cccc(S(=O)(=O)C(F)(F)F)c2)cc1Nc1nccc(-c2cccnc2)n1` [AN024, (3-trifluoromethylsulfonyl)-N-[4-methyl-3-(4-pyridin-3yl-pyrimidin-2ylamino)-phenyl]-benzamide], for which the “blast cell count from blood smears after withdrawal of drug treatment” value in test [1] (drug treatment withdrawn on day 42 (FIG. 6C)) is “showed effectiveness after withdrawal of drug treatment”. Moreover, the “animals showing no signs of leukemia / complete absence of leukemic symptoms” value in test [1] (of 10 animals, treatment day 15 to day 42, then withdrawn, AN024 read on day 55) amounted to 8 animals. The “mortality (day post implantation)” value in test [1] (treatment day 15 to day 42, then withdrawn) came out at 38 days. Besides, the luciferase expression result in test [2] (1 mg/kg) is given as “did not induce a decrease in luciferase expression”; in test [2] (5 mg/kg), “caused a decrease in luciferase expression”; in test [2] (10 mg/kg), “caused a decrease in luciferase expression”; in test [2] (20 mg/kg), “caused a decrease in luciferase expression”. Besides, the inhibition of angiogenesis entry in test [3] (after radiation treatment) is reported as “angiogenesis further inhibited”; in test [3] (control conditions (without radiation)), “inhibition of angiogenesis was seen”. The “blast cell count in blood smears” value in test [4] is recorded as “significant decrease in blast cell count”.
